Counter-ions that a name gives are not always drawn. Like-named read-outs stand apart in the source and are kept apart here.

In data set [1] the test system is SKOV-3 cells. Type of data set: cell-based, human. To be noted: 48 h. As for the experimental part:
(§1) The compound of Example 12 and the compound of Example 13 were measured for cytotoxicity thereof on SKOV-3 cells, A549 cells, and L1210 cells by using MTS method.
(§2) An evaluation method of the compound of Example 12 is as follows: To each cell culturing in a medium that is absent of folate, the compound of Example 12 was treated for two hours, and then the cells transferred to a fresh medium absent of the compound and continuously maintained and cultured for 48 hours. Surviving cells after 48 hours were counted by using MTS method.
(§3) An evaluation method of the compound of Example 13 is as follows: To each cell culturing in a medium that is absent of folate, the compound of Example 13 was treated for six hours, and then the cells transferred to a fresh medium absent of the compound and continuously maintained and cultured for 48 hours. Surviving cells after 48 hours were counted by using MTS method.
(§4) It has been reported that SKOV-3 cells and L1210 cells express folate acceptors in medium to high expression level on their cell surface. It has been reported that A549 cells express folate acceptors in low expression level or undetectable level on its cell surface (Analytical Biochemistry, (2005), 338: pp. 284-293; Molecular Cancer Therapeutics, (2015), 14: pp. 1605 to 13).

Data set [2] relates to A549 cells. The data set is classed as cell-based, human. Conditions: 48 h. As for the experimental part: as §1, §2, §3, §4
Data set [3] deals with L1210 cells. The data set is classed as cell-based, mouse. To be noted: 48 h. As for the experimental part:
as §1, §2, §3, §4

A short description of data set [4]: Parallel Artificial Membrane Permeation Assay (PAMPA), Pre-coated PAMPA Plate System (Corning). The method, then: Reference Example 14, the Compound of Reference Example 16, and the Compound of Comparative Example was Evaluated by Using Pre-Coated PAMPA PlateSystem (Corning)
A frozen-stored, Pre-coated PAMPA Plate System was allowed to stand at room temperature for thirty minutes or more. Subsequently, 320 μL of the standard solution was added to a Donor side plate of Pre-coated PAMPA Plate System, and 200 μL of the PBS containing 20% of methanol was added to an Acceptor side plate. Both of the plates were set for the system, and the plates allowed to stand at room temperature for five hours. The reaction liquid in each well of the Donor side and Acceptor side plates was subjected to LC/MS analysis (hereinafter, LC/MS-3), and the concentration of the compounds in each well calculated.
Using the obtained concentration of the compounds in the reaction liquid in each well, the membrane permeability coefficients (Pe) (cm/s) were calculated by the following formula: Cequilibrium=[…] Pe=[−ln(1−CA/Cequilibrium)]/S×(1/VD+1/VA)×t Cequilibrium: Equilibrium concentration of the wells in the Donor side and Acceptor side plates CD: Concentration after five hours of the wells in the Donor side plate (mmol/L) VD: Volume of the standard solution added to the wells in the Donor side plate (0.32 mL) CA: Concentration after five hours of the wells in the Acceptor side plate (mmol/L) VA: Volume of the PBS containing 20% of methanol added to the wells in the Acceptor side plate (0.2 mL) S: Surface of the membrane (0.3 cm^2) t: Standing time 18,000 s (=5 hrs).

Data set [5] deals with A549 cells. The experiment in a line: In vitro cytotoxicity of the peptide derivative (I), MTS method, A549 cells. Type of data set: cell-based, human. To be noted: Homo sapiens. An excerpt:
(§5) The cytotoxicity of the peptide derivative (I) or a pharmaceutically acceptable salt thereof, or the conjugate including the peptide derivative (I) or a pharmaceutically acceptable salt thereof can be evaluated with an in vitro study. Examples of the in vitro studies include the trypan blue dye exclusion method, the lactate dehydrogenase (LDH) activity assay, [^3H]thymidine incorporation method, or propidium iodide nuclear stain that each measures the number of dead cells or surviving cells post treated with the compound; a method using dyes such as MTT, MTS, and WST (Current Protocol in Toxicology, (2000), 2.6.1-2.6.27); or a method in which the amount of ATP is measured using CellTiter-Glow (Promega Corporation) and the like, and preferably include the method in which the number of surviving cells post treated with the compound is measured by using the MTS method to determine values of the cytotoxicity at that time from 50% effect-concentration (EC50). Furthermore, in the evaluation of the cytotoxicity of the conjugate including the peptide derivative (I) or a pharmaceutically acceptable salt thereof, preferred method is the one that for a certain time, cells are treated with a medium containing the compound, the cells are then transferred to a medium not containing the compound, and the number of surviving cells are measured after cultivation for additional certain time (Bioconjugate Chemistry., 2014; 25: pp. 560-568). For the in vitro studies, human ovarian cancer cell SKOV-3 cells, human alveolar basement epithelial gland cancer cell A549 cells, mouse lymphocytic leukocyte L1210 cells and the like are used.
For orientation: Tetrazolium dyes change colour on reduction, which living cells bring about.

The test system of data set [6] is L1210 cells. The experiment in a line: In vitro cytotoxicity of the peptide derivative (I), MTS method, L1210 cells. Conditions: Mus musculus. The data set is classed as cell-based, mouse.
From the text: as §5

For data set [7], the system named is SKOV-3 cells. Kind of data set: In vitro cytotoxicity of the peptide derivative (I), MTS method, SKOV-3 cells. The data set is classed as cell-based, human. To be noted: Homo sapiens, SK-OV-3.
From the text: as §5

`CC[C@H](C)C([C@@H](CC(=O)N1CCC[C@H]1[C@H](OC)[C@@H](C)C(=O)N[C@@H](Cc1ccccc1)c1nc(C(=O)N(C)CCSSCCN(C)C(=O)CCOCCOCCOCCOCCOCCOCCOCCOCCOCCOCCOCCOCCNC(=O)CCN2C(=O)CC(SCCNC(=O)[C@H](CCC(=O)O)NC(=O)CC[C@H](NC(=O)c3ccc(NCc4c[nH]c5nc(N)nc(=O)c-5n4)cc3)C(=O)O)C2=O)cs1)OC)N(C)C(=O)[C@@H](NC(=O)[C@H](C(C)C)N(C)C)C(C)C` (stereo in doubt) [Example 13]: the EC50 in data set [1] is 19.4 nM; in data set [2], over 300 nM; in data set [3], 36 nM.

Consider `CC[C@H](C)[C@@H]([C@@H](CC(=O)N1CCC[C@H]1[C@H](OC)[C@@H](C)C(=O)N[C@@H](Cc1ccccc1)c1nc(C(=O)O)cs1)OC)N(C)C(=O)[C@@H](NC(=O)[C@H](C(C)C)N(C)C)C(C)C` [Reference Example 1, 2-((S)-1-((2R,3R)-3-((S)-1-((3R,4S,5S)-4-((S)-2-((S)-2-(dimethylamino)-3-methylbutanamido)-N,3-dimethylbutanamido)-3-methoxy-5-methylheptanoyl)pyrrolidin-2-yl)-3-methoxy-2-methylpropanamido)-2-phenylethyl)thiazole-4-carboxylic acid, reference compound], for which the “Membrane Permeability Coefficient” value in data set [4] (200 μmol/L in PBS containing 20% of methanol, room temperature, five hours, N.D. = Acceptor side concentration less than lower limit of determinate quantity) is 0.01 10^−6 cm/s. Further, the figures for the EC50 in data set [5], in data set [6] and in data set [7] were over 10 nM, over 50 nM and over 10 nM, respectively.

In data set [4], `CC[C@H](C)[C@@H]([C@@H](CC(=O)N1CCC[C@H]1[C@H](OC)[C@@H](C)C(=O)N[C@@H](Cc1ccccc1)c1nc(C(=O)NCCN)cs1)OC)N(C)C(=O)[C@@H](NC(=O)[C@H](C(C)C)N(C)C)C(C)C` [Reference Example 12, N-(2-aminoethyl)-2-((S)-1-(((2S,3R)-3-((S)-1-((3R,4S,5S)-4-((S)-2-((S)-2-(dimethylamino)-3-methylbutanamido)-N, 3-dimethylbutanamido)-3-methoxy-5-methylheptanoyl)pyrrolidin-2-yl)-3-methoxy-2-methylpropanamido)-2-phenylethyl)thiazole-4-carboxamidedihydrochloride, reference compound] returned a Papp at 5 h, 200 μmol/L of 0.01 ×10⁻⁶ cm/s. Further, the EC50 is over 10 nM in data set [5], over 50 nM in data set [6] and over 10 nM in data set [7].

On to `CC[C@H](C)[C@@H]([C@@H](CC(=O)N1CCC[C@H]1[C@H](OC)[C@@H](C)C(=O)N[C@@H](Cc1ccccc1)c1nc(C(=O)NCCNC)cs1)OC)N(C)C(=O)[C@@H](NC(=O)[C@H](C(C)C)N(C)C)C(C)C` [Reference Example 14, 2-((S)-1-(((2S,3R)-3-((S)-1-((3R,4S,5S)-4-((S)-2-((S)-2-(dimethylamino)-3-methylbutanamido)-N,3-dimethylbutanamido)-3-methoxy-5-methylheptanoyl)pyrrolidin-2-yl)-3-methoxy-2-methylpropanamido)-2-phenylethyl)-N-(2-(methylamino)ethyl)thiazole-4-carboxamidedihydrochloride, reference compound], for which the Papp at 5 h, 200 μmol/L in data set [4] was 0.004 ×10⁻⁶ cm/s. Also, the EC50 is 9.85 nM in data set [5], 26.8 nM in data set [6] and over 10 nM in data set [7].

As usually defined, the EC50 is the concentration giving half of the maximal effect. Lower therefore signals a more potent agent. As usually defined, the Papp is a coefficient for how fast a substance crosses the barrier. Low readings indicate slow passage, high ones fast passage.

The values above are taken from patent publication US10792365B2, “Peptide derivative and use thereof” (Toray Industries, Inc., priority 2016, dated 2020).
